We go through 26 molecules from patent US20170275298A1, “INHIBITORS OF THE RENAL OUTER MEDULLARY POTASSIUM CHANNEL” (Merck Sharp & Dohme Corp., priority 2014, published 2017).

In the experiment the target is T1, hROMK (hKir1.1) (Homo sapiens, UniProt P48048).
T1 construct: expressed in transfected cells
T1 sequence (P48048 1-391): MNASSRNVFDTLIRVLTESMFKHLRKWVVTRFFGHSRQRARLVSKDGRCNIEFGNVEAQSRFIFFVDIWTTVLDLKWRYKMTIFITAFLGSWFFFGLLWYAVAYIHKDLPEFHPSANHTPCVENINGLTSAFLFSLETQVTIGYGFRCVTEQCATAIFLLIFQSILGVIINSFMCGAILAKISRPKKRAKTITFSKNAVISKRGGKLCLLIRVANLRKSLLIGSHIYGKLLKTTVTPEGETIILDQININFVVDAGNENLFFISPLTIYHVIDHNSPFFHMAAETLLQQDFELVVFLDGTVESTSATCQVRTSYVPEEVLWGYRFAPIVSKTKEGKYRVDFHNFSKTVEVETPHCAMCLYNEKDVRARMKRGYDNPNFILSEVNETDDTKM
Put plainly: Thallium Flux Assay (ROMK channel functional thallium flux assay). Particulars: HEK293 cells stably expressing hROMK (hKir1.1); FluxOR thallium flux, FLIPR-Tetra, 30 min compound incubation; read-out: ROMK TI IC50. The class given is cell-based. In short, it runs like this:
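HEK293 cells stably expressing hROMK (hKir1.1) loaded with FluxOR dye 90 min at ambient temperature, then compound 30 min before thallium/potassium stimulant (final 3 mM Tl/0.3 mM K). ROMK-sensitive flux defined by 3 μM standard inhibitor; data as % fluorescence change.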

Regarding `Cc1c([C@@H](O)CN2CCC3(CC2)CCN(c2cnsc2)C3=O)ccc2c1COC2=O` [Example 72, (R)-8-(2-hydroxy-2-(4-methyl-1-oxo-1,3-dihydroisobenzofuran-5-yl)ethyl)-2-(isothiazol-4-yl)-2,8-diazaspiro[4.5]decan-1-one], the IC50 came to 20 nM.
The value for `Cc1c([C@@H](O)CN2CCC3(CC2)CCN(c2ccncc2F)C3=O)ccc2c1COC2=O` [Example 73, (R)-2-(3-fluoropyridin-4-yl)-8-(2-hydroxy-2-(4-methyl-1-oxo-1,3-dihydroisobenzofuran-5-yl)ethyl)-2,8-diazaspiro[4.5]decan-1-one] was 417 nM.
The value for `COc1cc(N2CCC3(CCN(C[C@H](O)c4ccc5c(c4C)COC5=O)CC3)C2=O)ccn1` [Example 74, (R)-8-(2-hydroxy-2-(4-methyl-1-oxo-1,3-dihydroisobenzofuran-5-yl)ethyl)-2-(2-methoxypyridin-4-yl)-2,8-diazaspiro[4.5]decan-1-one] was 55.7 nM.
The value for `Cc1c([C@@H](O)CN2CCC3(CC2)CCN(c2ccc(OC(F)F)nc2)C3=O)ccc2c1COC2=O` [Example 76, (R)-2-(6-(difluoromethoxy)pyridin-3-yl)-8-(2-hydroxy-2-(4-methyl-1-oxo-1,3-dihydroisobenzofuran-5-yl)ethyl)-2,8-diazaspiro[4.5]decan-1-one] was 320 nM.
Consider `COc1ccncc1N1CCC2(CCN(C[C@H](O)c3ccc4c(c3C)COC4=O)CC2)C1=O` [Example 77, (R)-8-(2-hydroxy-2-(4-methyl-1-oxo-1,3-dihydroisobenzofuran-5-yl)ethyl)-2-(4-methoxypyridin-3-yl)-2,8-diazaspiro[4.5]decan-1-one], for which the concentration for half-maximal inhibition (IC50) stood at 697 nM.
The value for `Cc1c([C@@H](O)CN2CCC3(CC2)CC(=O)N(c2ccncc2)C3)ccc2c1COC2=O` [Example 79, (R)-8-(2-hydroxy-2-(4-methyl-1-oxo-1,3-dihydroisobenzofuran-5-yl)ethyl)-2-(pyridin-4-yl)-2,8-diazaspiro[4.5]decan-3-one] was 56.7 nM; that for `COc1nccc(N2CCC3(CCN(C[C@H](O)c4ccc5c(c4C)COC5=O)CC3)C2=O)n1` [Example 80, (R)-8-(2-hydroxy-2-(4-methyl-1-oxo-1,3-dihydroisobenzofuran-5-yl)ethyl)-2-(2-methoxypyrimidin-4-yl)-2,8-diazaspiro[4.5]decan-1-one] was 14.3 nM; that for `Cc1cc(N2CCCC3(CCN(C[C@H](O)c4ccc5c(c4C)COC5=O)CC3)C2=O)sn1` [Example 81, (R)-9-(2-hydroxy-2-(4-methyl-1-oxo-1,3-dihydroisobenzofuran-5-yl)ethyl)-2-(3-methylisothiazol-5-yl)-2,9-diazaspiro[5.5]undecan-1-one] was 175 nM.
For `Cc1c([C@@H](O)CN2CCC3(CC2)CCN(c2ccc(=O)n(C)c2)C3=O)ccc2c1COC2=O` [Example 82, (R)-8-(2-hydroxy-2-(4-methyl-1-oxo-1,3-dihydroisobenzofuran-5-yl)ethyl)-2-(1-methyl-6-oxo-1,6-dihydropyridin-3-yl)-2,8-diazaspiro[4.5]decan-1-one] the value was 424 nM; for `Cc1c([C@@H](O)CN2CCC3(CC2)CCN(c2nc(CO)ns2)C3=O)ccc2c1COC2=O` [Example 83, (R)-8-(2-hydroxy-2-(4-methyl-1-oxo-1,3-dihydroisobenzofuran-5-yl)ethyl)-2-(3-(hydroxymethyl)-1,2,4-thiadiazol-5-yl)-2,8-diazaspiro[4.5]decan-1-one], 832 nM; for `COc1cc(N2CC3(CCN(C[C@H](O)c4ccc5c(c4C)COC5=O)CC3)CC2=O)ccn1` [Example 84, (R)-8-(2-hydroxy-2-(4-methyl-1-oxo-1,3-dihydroisobenzofuran-5-yl)ethyl)-2-(2-methoxypyridin-4-yl)-2,8-diazaspiro[4.5]decan-3-one], 149 nM.
The value for `Cc1c([C@@H](O)CN2CCC3(CCCN(c4ccncc4)C3=O)CC2)ccc2c1COC2=O` [Example 85, (R)-9-(2-hydroxy-2-(4-methyl-1-oxo-1,3-dihydroisobenzofuran-5-yl)ethyl)-2-(pyridin-4-yl)-2,9-diazaspiro[5.5]undecan-1-one] was 801 nM; that for `Cc1c([C@@H](O)CN2CCC3(CC2)CN(c2ccncc2)C(=O)O3)ccc2c1COC2=O` [Example 86, (R)-8-(2-hydroxy-2-(4-methyl-1-oxo-1,3-dihydroisobenzofuran-5-yl)ethyl)-3-(pyridin-4-yl)-1-oxa-3,8-diazaspiro[4.5]decan-2-one] was 561 nM; that for `Cc1c([C@@H](O)CN2CCC3(CC2)CCN(c2cc(C(F)(F)F)ncn2)C3=O)ccc2c1COC2=O` [Example 87, (R)-8-(2-hydroxy-2-(4-methyl-1-oxo-1,3-dihydroisobenzofuran-5-yl)ethyl)-2-(6-(trifluoromethyl)pyrimidin-4-yl)-2,8-diazaspiro[4.5]decan-1-one] was 643 nM.
For the molecule `Cc1cc(N2CCC3(CCN(C[C@H](O)c4ccc5c(c4C)COC5=O)CC3)C2=O)ccn1` [Example 88, (R)-8-(2-hydroxy-2-(4-methyl-1-oxo-1,3-dihydroisobenzofuran-5-yl)ethyl)-2-(2-methylpyridin-4-yl)-2,8-diazaspiro[4.5]decan-1-one], the IC50 was found to be 130 nM.
For `COc1nccc(N2CCC3(CCN(C[C@H](O)c4ccc(-n5cnnn5)nc4C)CC3)C2=O)n1` [Example 89, (R)-8-(2-hydroxy-2-(2-methyl-6-(1H-tetrazol-1-yl)pyridin-3-yl)ethyl)-2-(2-methoxypyrimidin-4-yl)-2,8-diazaspiro[4.5]decan-1-one] the value was 787 nM; for `Cc1c([C@@H](O)CN2CCC3(CC2)CCN(c2ccnnc2)C3=O)ccc2c1COC2=O` [Example 90, (R)-8-(2-hydroxy-2-(4-methyl-1-oxo-1,3-dihydroisobenzofuran-5-yl)ethyl)-2-(pyridazin-4-yl)-2,8-diazaspiro[4.5]decan-1-one], 120 nM; for `Cc1c([C@@H](O)CN2CCC3(CC2)CC(=O)N(c2ccnc(Cl)n2)C3)ccc2c1COC2=O` [Example 91, (R)-2-(2-chloropyrimidin-4-yl)-8-(2-hydroxy-2-(4-methyl-1-oxo-1,3-dihydroisobenzofuran-5-yl)ethyl)-2,8-diazaspiro[4.5]decan-3-one], 775 nM.
The value for `Cc1c([C@@H](O)CN2CCC3(CC2)CCN(c2ccnc(Cl)n2)C3=O)ccc2c1COC2=O` [Example 92, (R)-2-(2-chloropyrimidin-4-yl)-8-(2-hydroxy-2-(4-methyl-1-oxo-1,3-dihydroisobenzofuran-5-yl)ethyl)-2,8-diazaspiro[4.5]decan-1-one] was 110 nM; that for `Cc1nc(-n2cnnn2)ccc1[C@@H](O)CN1CCC2(CC1)CCN(c1ccc(=O)n(C)n1)C2=O` [Example 93, (R)-8-(2-hydroxy-2-(2-methyl-6-(1H-tetrazol-1-yl)pyridin-3-yl)ethyl)-2-(1-methyl-6-oxo-1,6-dihydropyridazin-3-yl)-2,8-diazaspiro[4.5]decan-1-one] was 259 nM; that for `Cc1c([C@@H](O)CN2CCC3(CC2)CCN(c2cn(C)c(=O)cn2)C3=O)ccc2c1COC2=O` [Example 94, (R)-8-(2-hydroxy-2-(4-methyl-1-oxo-1,3-dihydroisobenzofuran-5-yl)ethyl)-2-(4-methyl-5-oxo-4,5-dihydropyrazin-2-yl)-2,8-diazaspiro[4.5]decan-1-one] was 272 nM.
As to `Cc1c([C@@H](O)CN2CCC3(CC2)CN(c2ccc(=O)n(C)n2)C(=O)O3)ccc2c1COC2=O` [Example 95, (R)-8-(2-hydroxy-2-(4-methyl-1-oxo-1,3-dihydroisobenzofuran-5-yl)ethyl)-3-(1-methyl-6-oxo-1,6-dihydropyridazin-3-yl)-1-oxa-3,8-diazaspiro[4.5]decan-2-one], the IC50 was 488 nM.
For `Cn1nc(N2CCC3(CCN(C[C@@H](O)c4cccc(-n5cnnn5)c4)CC3)C2=O)ccc1=O` [Example 96, (S)-8-(2-(3-(1H-tetrazol-1-yl)phenyl)-2-hydroxyethyl)-2-(1-methyl-6-oxo-1,6-dihydropyridazin-3-yl)-2,8-diazaspiro[4.5]decan-1-one] the value was 702 nM; for `Cc1c([C@@H](O)CN2CCC3(CC2)C[C@H](C)N(c2ccc(=O)n(C)n2)C3=O)ccc2c1COC2=O` [Example 97, (S)-8-((R)-2-hydroxy-2-(4-methyl-1-oxo-1,3-dihydroisobenzofuran-5-yl)ethyl)-3-methyl-2-(1-methyl-6-oxo-1,6-dihydropyridazin-3-yl)-2,8-diazaspiro[4.5]decan-1-one], 378 nM.
For `Cc1c([C@@H](O)CN2CCC3(CC2)C[C@@H](C)N(c2ccc(=O)n(C)n2)C3=O)ccc2c1COC2=O` [Example 98, (R)-8-((R)-2-hydroxy-2-(4-methyl-1-oxo-1,3-dihydroisobenzofuran-5-yl)ethyl)-3-methyl-2-(1-methyl-6-oxo-1,6-dihydropyridazin-3-yl)-2,8-diazaspiro[4.5]decan-1-one] the value was 54.7 nM; for `Cc1nc(-n2cnnn2)ccc1[C@@H](O)CN1CCC2(CC1)CCN(c1ncns1)C2=O` [Example 99, (R)-8-(2-hydroxy-2-(2-methyl-6-(1H-tetrazol-1-yl)pyridin-3-yl)ethyl)-2-(1,2,4-thiadiazol-5-yl)-2,8-diazaspiro[4.5]decan-1-one], 242 nM.

As a reminder, the IC50 is the concentration at which inhibition is half-maximal.
